Reference: US10960087B2, “Compositions and methods for treatment of diabetic retinopathy” (NOVARTIS AG, priority 2007, dated 2021)

Experiments:
[1] = test system: HuT 78 cell adhesion to 5dICAM-Ig; experiment: Human T-cell adhesion assay (HuT 78); type: cell-based; details: HuT78, HuT 78 adhesion to 5dICAM-Ig
Procedure: The T-cell adhesion assay was performed using the human T-lymphoid cell line HuT 78 (ATCC TIB-161). Goat anti-HuIgG(Fc) was diluted to 2 μg/ml in PBS and 96-well plates were coated with 50 μl/well at 37° C. for 1 h. Plates were washed with PBS and blocked for 1 h at room temperature with 1% BSA in PBS. 5 domain ICAM-Ig was diluted to 100 ng/ml in PBS and 50 μl/well was added to the plates 0/N at 4° C. HuT 78 cells were centrifuged at 100 g and the cell pellet was treated with 5 mM EDTA for ˜5′ at 37° C. in a 5% CO2 incubator. Cells were washed in 0.14 M NaCl, 0.02 M Hepes, 0.2% glucose and 0.1 mM MnCl2 (assay buffer) and centrifuged. The cells were resuspended in assay buffer to 3.0×10^6 c/ml. Inhibitors were diluted in assay buffer to a 2× final concentration and pre-incubated with HuT78 cells for 30′ at room temperature. 100 μl/well of cells and inhibitors were added to the plates and incubated at room temperature for 1 h. 100 μl/well PBS was added and the plates were sealed and centrifuged inverted at 100 g for 5′. Unattached cells were flicked out of the plate and excess PBS was blotted on a paper towel. 60 μl/well p-nitrophenyl n-acetyl-β-D-glucosaminide (0.257 g to 100 ml citrate buffer) was added to the plate and incubated for 1.5 h at 37° C. The enzyme reaction was stopped with 90 μI/well 50 mM glycine/5 mM EDTA and read on a platereader at […]. HUT 78 cell adhesion to 5dICAM-Ig was measured using the p-nitrophenyl n-acetyl-.β-D-glucosaminide method of Landegren, U. (1984). J. Immunol. Methods 57, 379-388.

[2] = Solubility; type: physicochemical

| Structure (SMILES) | EC50 [1] | solubility [2] |
| --- | --- | --- |
| CS(=O)(=O)c1cncc(C[C@H](NC(=O)c2c(Cl)cc3c(c2Cl)CCN(C(=O)c2ccc4ccoc4c2)C3)C(=O)O)c1 [Compound 33] | ≤ 50 nM |  |
| O=C(NC[C@H](NC(=O)c1c(Cl)cc2c(c1Cl)CCN(C(=O)c1ccc(Cl)c(Cl)c1)C2)C(=O)O)c1cccs1 [Compound 18] | ≤ 50 nM |  |
| CS(=O)(=O)CCNC[C@H](NC(=O)c1c(Cl)cc2c(c1Cl)CCN(C(=O)c1ccc(Cl)cc1)C2)C(=O)O [Compound 42] | ≤ 3000 nM | > 100 mg/mL |
| O=C(NC[C@H](NC(=O)c1c(Cl)cc2c(c1Cl)CCN(C(=O)c1ccc3cn[nH]c3c1)C2)C(=O)O)c1cccs1 [Compound 34] | ≤ 50 nM |  |
| O=C(NC[C@H](NC(=O)c1c(Cl)cc2c(c1Cl)CCN(C(=O)Nc1cccc(Cl)c1)C2)C(=O)O)c1cccs1 [Compound 21] | ≤ 50 nM | > 100 mg/mL |
| Cc1cc2c(=O)n(Cc3ccccc3)ncc2cc1C(=O)N[C@@H](CNC(=O)c1cccs1)C(=O)O [Compound 29] | ≤ 3000 nM | > 50 mg/mL |
| CS(=O)(=O)c1ccc(C[C@H](NC(=O)c2c(Cl)cc3c(c2Cl)CCN(C(=O)c2ccc4ccoc4c2)C3)C(=O)O)o1 [Compound 41] | ≤ 50 nM | > 100 mg/mL |
| CS(=O)(=O)c1ccc(C[C@H](NC(=O)c2c(Cl)cc3c(c2Cl)CCN(C(=O)c2cc4cccnc4[nH]2)C3)C(=O)O)o1 [Compound 20] | ≤ 50 nM | > 100 mg/mL |
| O=C(NC[C@H](NC(=O)c1c(Cl)cc2c(c1Cl)CCN(C(=O)c1ccc(Cl)cc1)C2)C(=O)O)c1ccccc1 [Compound 5] | ≤ 50 nM |  |
| C[S+]([O-])c1cncc(C[C@H](NC(=O)c2c(Cl)cc3c(c2Cl)CCN(C(=O)c2ccc4ccoc4c2)C3)C(=O)O)c1 (stereo partly shown) [Compound 14] | ≤ 50 nM |  |
| Cc1oc(C[C@H](NC(=O)c2c(Cl)cc3c(c2Cl)CCN(C(=O)c2ccc4ccoc4c2)C3)C(=O)O)cc1S(C)(=O)=O [Compound 30] | ≤ 50 nM |  |
| CS(=O)(=O)n1cc(C[C@H](NC(=O)c2c(Cl)cc3c(c2Cl)CCN(C(=O)/C=C/c2ccco2)C3)C(=O)O)c2ccccc21 [Compound 40] | ≤ 300 nM |  |
| O=C(N[C@@H](Cc1c[nH]cn1)C(=O)O)c1c(Cl)cc2c(c1Cl)CCN(C(=O)c1ccc(Cl)cc1)C2 [Compound 1] | ≤ 300 nM |  |
| CP(C)(=O)c1cccc(C[C@H](NC(=O)c2c(Cl)cc3c(c2Cl)CCN(C(=O)c2ccc4ccoc4c2)C3)C(=O)O)c1 [Compound 49] | ≤ 100 nM |  |
| O=C(NC[C@H](NC(=O)c1c(Cl)cc2c(c1Cl)CCN(C(=O)/C=C/c1ccco1)C2)C(=O)O)c1cccs1 [Compound 45] | ≤ 50 nM | > 100 mg/mL |
| CS(=O)(=O)c1cccc(C[C@H](NC(=O)c2c(Cl)cccc2Cl)C(=O)O)c1 [Compound 46] | ≤ 100 nM | > 100 mg/mL |
| O=C(NC[C@H](NC(=O)c1c(Cl)cc(CCC(O)c2cccc(O)c2)cc1Cl)C(=O)O)c1cccs1 (stereo partly shown) [Compound 32] | ≤ 50 nM | > 50 mg/mL |
| CS(=O)(=O)c1cccc(C[C@H](NC(=O)c2c(Cl)cc3c(c2Cl)CCN(C(=O)c2cc4ccccc4[nH]2)C3)C(=O)O)c1 [Compound 36] | ≤ 50 nM | > 50 mg/mL |
| CS(=O)(=O)c1cccc(C[C@H](NC(=O)c2c(Cl)cc3c(c2Cl)CCN(C(=O)c2ccc(Cl)cc2)C3)C(=O)O)c1 [Compound 28] | ≤ 50 nM |  |
| CS(=O)(=O)c1cccc(C[C@H](NC(=O)c2c(Cl)cc3c(c2Cl)CCN(C(=O)/C=C/c2ccccc2F)C3)C(=O)O)c1 [Compound 27] | ≤ 50 nM | > 100 mg/mL |
| O=C(N[C@@H](CNc1ncnc2ccccc12)C(=O)O)c1c(Cl)cc2c(c1Cl)CCN(C(=O)c1ccc(Cl)cc1)C2 [Compound 3] | ≤ 50 nM |  |
| CS(=O)(=O)c1nc(C[C@H](NC(=O)c2c(Cl)cc3c(c2Cl)CCN(C(=O)c2ccc(Cl)cc2)C3)C(=O)O)c[nH]1 [Compound 7] | ≤ 50 nM |  |
| O=C(NC[C@H](NC(=O)c1c(Cl)cc2c(c1Cl)CCN(C(=O)c1ccc(Cl)cc1)C2CO)C(=O)O)c1cccs1 (stereo partly shown) [Compound 17] | ≤ 50 nM |  |
| CC(C)n1cc(C[C@H](NC(=O)c2c(Cl)cc3c(c2Cl)CCN(C(=O)c2ccc(Cl)cc2)C3)C(=O)O)nn1 [Compound 24] | ≤ 100 nM |  |
| CS(=O)(=O)c1cccc(C[C@H](NC(=O)c2c(Cl)cc(CCC(O)c3ccc(Cl)cc3)cc2Cl)C(=O)O)c1 (stereo partly shown) [Compound 37] | ≤ 100 nM |  |

| Structure (SMILES) | EC50 [1] | solubility [2] |
| --- | --- | --- |
| O=C(NC[C@H](NC(=O)c1cc2c(cc1Cl)C(=O)N(Cc1ccccc1)CC2)C(=O)O)c1cccs1 [Compound 11] | ≤ 3000 nM |  |
| CS(=O)(=O)N1CCC=C(C[C@H](NC(=O)c2c(Cl)cc3c(c2Cl)CCN(C(=O)c2ccc4ccoc4c2)C3)C(=O)O)C1 [Compound 23] | ≤ 50 nM |  |
| CS(=O)(=O)c1cccc(C[C@H](NC(=O)c2c(Cl)cc3c(c2Cl)CCN(C(=O)c2ccc4ccoc4c2)C3)C(=O)O)c1 [Compound 12] | ≤ 50 nM | > 100 mg/mL |
| CS(=O)(=O)c1ccn(C[C@H](NC(=O)c2c(Cl)cc3c(c2Cl)CCN(C(=O)c2ccc4ccoc4c2)C3)C(=O)O)c1 [Compound 22] | ≤ 50 nM |  |
| CN1CCN(C(=O)[C@H](CNC(=O)c2cccs2)NC(=O)c2c(Cl)cc3c(c2Cl)CCN(C(=O)c2ccc(Cl)cc2)C3)CC1 [Compound 10] |  | > 100 mg/mL |
| C[C@H](O)c1cccc(C[C@H](NC(=O)c2c(Cl)cc3c(c2Cl)CCN(C(=O)c2ccc4cn[nH]c4c2)C3)C(=O)O)c1 [Compound 48] | ≤ 50 nM |  |
| CS(=O)(=O)c1cccc(C[C@H](NC(=O)c2c(Cl)cc3c(c2Cl)CCN(C(=O)c2cc4cccnc4[nH]2)C3)C(=O)O)c1 [Compound 19] | ≤ 50 nM | > 50 mg/mL |
| C[S+]([O-])c1cc(F)cc(C[C@H](NC(=O)c2c(Cl)cc3c(c2Cl)CCN(C(=O)c2ccc(Cl)cc2)C3)C(=O)O)c1 (stereo partly shown) [Compound 9] | ≤ 50 nM | > 50 mg/mL |
| O=C(NC[C@H](NC(=O)c1c(Cl)cc2c(c1Cl)CCN(C(=O)c1cc3ccccc3o1)C2)C(=O)O)c1cccs1 [Compound 38] | ≤ 50 nM |  |
| O=C(NC[C@H](NC(=O)c1c(Cl)cc2c(c1Cl)CCN(C(=O)c1ccc3cc[nH]c3c1)C2)C(=O)O)c1cccs1 [Compound 13] | ≤ 50 nM |  |
| CS(=O)(=O)c1cccc(C[C@H](NC(=O)c2c(Cl)cc3c(c2Cl)CCN(C(=O)c2cc4ccccc4cn2)C3)C(=O)O)c1 [Compound 16] | ≤ 50 nM | > 100 mg/mL |
| CS(=O)(=O)c1cc(F)cc(C[C@H](NC(=O)c2c(Cl)cc3c(c2Cl)CCN(C(=O)c2ccc4ccoc4c2)C3)C(=O)O)c1 [Compound 25] | ≤ 50 nM | > 100 mg/mL |
| O=C(NC[C@H](NC(=O)c1c(Cl)cc2c(c1Cl)CCN(C(=O)c1ccc3ccoc3c1)C2)C(=O)O)c1cccc(F)c1 [Compound 31] | ≤ 50 nM | > 50 mg/mL |
| CS(=O)(=O)NCCC[C@H](NC(=O)c1c(Cl)cc2c(c1Cl)CCN(C(=O)c1ccc3ccoc3c1)C2)C(=O)O [Compound 44] | ≤ 50 nM | > 100 mg/mL |
| O=C(CCc1cc(Cl)c(C(=O)N[C@@H](CNC(=O)c2cccs2)C(=O)O)c(Cl)c1)c1cccc(O)c1 [Compound 47] | ≤ 50 nM |  |
| C=C(C)c1cn(C[C@H](NC(=O)c2c(Cl)cc3c(c2Cl)CCN(C(=O)c2ccc(Cl)cc2)C3)C(=O)O)nn1 [Compound 4] | ≤ 100 nM |  |
| N#CN=C(NC[C@H](NC(=O)c1c(Cl)cc2c(c1Cl)CCN(C(=O)/C=C/c1ccccc1O)C2)C(=O)O)N1CC[C@H](O)C1 [Compound 26] | ≤ 50 nM |  |
| O=C(NC[C@H](NC(=O)c1c(Cl)cc2c(c1Cl)CCN(C(=O)c1cccc(Cl)c1)C2)C(=O)O)c1cccs1 [Compound 2] | ≤ 50 nM | > 100 mg/mL |
| CS(=O)(=O)c1cccc(C[C@H](NC(=O)c2c(Cl)cc(CNC(=O)/C=C/c3ccccc3O)cc2Cl)C(=O)O)c1 [Compound 43] | ≤ 50 nM |  |
| O=C(NC[C@H](NC(=O)c1c(Cl)cc2c(c1Cl)CCN(C(=O)c1cc(O)nc3ccccc13)C2)C(=O)O)c1cccs1 [Compound 35] | ≤ 50 nM | > 100 mg/mL |
| CS(=O)(=O)c1cccc(C[C@H](NC(=O)c2c(Cl)cc3c(c2Cl)CCN(C(=O)c2ccc4cn[nH]c4c2)C3)C(=O)O)c1 [Compound 15] | ≤ 50 nM | > 100 mg/mL |
| CS(=O)(=O)Nc1ccccc1NC[C@H](NC(=O)c1c(Cl)cc2c(c1Cl)CCN(C(=O)c1ccc(Cl)cc1)C2)C(=O)O [Compound 39] | ≤ 50 nM |  |
| CCc1c(C(=O)N[C@@H](CNC(=O)c2cccs2)C(=O)O)c2ccccc2n(CCCc2ccccc2)c1=O [Compound 6] | ≤ 50 nM | > 100 mg/mL |
| O=C(N[C@@H](Cn1cc(CO)nn1)C(=O)O)c1c(Cl)cc2c(c1Cl)CCN(C(=O)c1ccc(Cl)cc1)C2 [Compound 8] | ≤ 100 nM |  |
